How the values were obtained:
[1] = target: T1, Dual specificity protein kinase TTK (Homo sapiens, UniProt P33981); assay: Inhibition of SUMO-tagged human TTK (1-275 residues) compound pre-incubated for 15 mins prior ATP addition by MBP-based assay
T1 sequence (P33981 whole entry): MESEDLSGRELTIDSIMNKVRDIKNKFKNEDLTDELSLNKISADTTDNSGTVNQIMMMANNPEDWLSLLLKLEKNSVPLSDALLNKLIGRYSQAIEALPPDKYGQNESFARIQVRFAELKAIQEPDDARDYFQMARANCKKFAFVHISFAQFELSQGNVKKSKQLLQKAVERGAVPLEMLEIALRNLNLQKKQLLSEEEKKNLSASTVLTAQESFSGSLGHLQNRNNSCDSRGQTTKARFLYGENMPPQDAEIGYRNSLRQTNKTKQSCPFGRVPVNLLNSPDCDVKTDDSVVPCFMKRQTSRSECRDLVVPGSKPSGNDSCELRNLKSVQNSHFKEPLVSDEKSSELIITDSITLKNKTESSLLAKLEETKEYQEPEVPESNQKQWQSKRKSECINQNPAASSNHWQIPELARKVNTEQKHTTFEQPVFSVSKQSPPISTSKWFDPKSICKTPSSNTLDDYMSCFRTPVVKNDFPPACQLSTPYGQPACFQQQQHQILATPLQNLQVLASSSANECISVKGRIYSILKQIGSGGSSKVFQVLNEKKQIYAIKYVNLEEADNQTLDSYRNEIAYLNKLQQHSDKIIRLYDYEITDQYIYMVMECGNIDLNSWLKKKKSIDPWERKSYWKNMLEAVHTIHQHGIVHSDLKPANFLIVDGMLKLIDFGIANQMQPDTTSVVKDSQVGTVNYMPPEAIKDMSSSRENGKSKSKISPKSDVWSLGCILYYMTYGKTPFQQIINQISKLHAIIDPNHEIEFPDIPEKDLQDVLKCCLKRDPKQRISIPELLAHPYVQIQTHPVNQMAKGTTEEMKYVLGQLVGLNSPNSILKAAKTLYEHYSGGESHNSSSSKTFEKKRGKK

[2] = Growth inhibition of human HCT116 cells after 5 days by SRB assay; assay type: functional; conditions: HCT-116, 120 h
[3] = target: T1, Dual specificity protein kinase TTK; assay: Inhibition of GST-fused full length human TTK compound pre-incubated for 15 mins prior ATP addition by MBP-based assay
[4] = test system: A549; assay: Growth inhibition of human A549 cells after 5 days by SRB assay; assay type: functional; conditions: A549, 120 h
[5] = test system: MDA-MB-468; assay: Growth inhibition of human MDA-MB-468 cells after 5 days by SRB assay; assay type: functional; conditions: MDA-MB-468, 120 h

| SMILES | IC50 [1] [nM] | GI50 [2] [nM] | IC50 [3] [nM] | GI50 [4] [nM] | GI50 [5] [nM] |
| --- | --- | --- | --- | --- | --- |
| NS(=O)(=O)c1cccc(-c2n[nH]c3ccc(CNC(=O)c4ccccc4)cc23)c1 | 550 | 700 |  |  |  |
| NS(=O)(=O)c1cccc(-c2n[nH]c3ccc(NC(=O)Cc4cccs4)cc23)c1 | 16 | 2900 |  |  |  |
| N#Cc1ccc2c(/C=C/c3ccncc3)n[nH]c2c1 |  |  | 5000 |  |  |
| NS(=O)(=O)c1cccc(-c2n[nH]c3cc(NC(=O)c4cccs4)ccc23)c1 | 4300 |  |  |  |  |
| NS(=O)(=O)c1cccc(-c2n[nH]c3ccc(OCCc4cccs4)cc23)c1 | 380 | 750 |  |  |  |
| COC(C(=O)Nc1ccc2[nH]nc(-c3cccc(S(N)(=O)=O)c3)c2c1)c1ccccc1 (racemic) | 26 | 1060 |  | 2500 | 2200 |
| NCc1cccc(-c2n[nH]c3cccc(Cl)c23)c1 |  |  | > 50000 |  |  |
| CO[C@@H](C(=O)Nc1ccc2[nH]nc(-c3cccc(S(N)(=O)=O)c3)c2c1)c1ccccc1 | 30 | 850 |  | 2400 | 3200 |
| CCC(C(=O)Nc1ccc2[nH]nc(-c3cccc(S(N)(=O)=O)c3)c2c1)c1ccccc1 (racemic) | 24 | 1300 |  |  |  |
| NS(=O)(=O)c1cccc(-c2n[nH]c3ccc(NC(=O)C(c4ccccc4)N4CCCCC4)cc23)c1 (racemic) | 10 | 270 |  | 400 | 690 |
| CO[C@H](C(=O)Nc1ccc2[nH]nc(-c3cccc(S(N)(=O)=O)c3)c2c1)c1ccccc1 | 26 | 800 |  | 3600 | 2200 |
| NS(=O)(=O)c1cccc(-c2n[nH]c3cccc(-c4c(F)cccc4F)c23)c1 | 1400 |  |  |  |  |
| NS(=O)(=O)c1cccc(-c2n[nH]c3ccc(NC(=O)CCc4ccccc4)cc23)c1 | 980 | > 50000 |  |  |  |
| CCc1cccc(CC)c1NC(=O)N(C)c1ccc2[nH]nc(-c3cccc(S(N)(=O)=O)c3)c2c1 | > 50000 | > 50000 |  |  |  |
| NS(=O)(=O)c1cccc(-c2n[nH]c3ccc(NC(=O)C4(c5ccccc5)CC4)cc23)c1 | 310 | 7300 |  |  |  |
| NS(=O)(=O)c1cccc(-c2n[nH]c3ccc(OCc4ccccc4)cc23)c1 | 580 |  |  |  |  |
| NS(=O)(=O)c1cccc(-c2n[nH]c3ccc(NC(=O)Cc4ccncc4)cc23)c1 | 340 | 50000 |  |  |  |
| Cc1ccccc1CC(=O)Nc1ccc2[nH]nc(-c3cccc(S(N)(=O)=O)c3)c2c1 | 25 | 1800 |  |  |  |
| NS(=O)(=O)c1cccc(-c2n[nH]c3ccc(NC(=O)C(c4ccccc4)C4CCCCC4)cc23)c1 (racemic) | 61 | 430 |  |  |  |
| CC(=O)Nc1ccc2[nH]nc(-c3cccc(S(N)(=O)=O)c3)c2c1 | 640 |  |  |  |  |
| CN(C)C(C(=O)Nc1ccc2[nH]nc(-c3cccc(S(N)(=O)=O)c3)c2c1)c1ccccc1 (racemic) | 12 | 660 |  | 1700 | 1400 |
| Cc1cccc(CS(=O)(=O)Nc2ccc3[nH]nc(-c4cccc(S(N)(=O)=O)c4)c3c2)c1 | 330 | 28000 |  |  |  |
| NS(=O)(=O)c1cccc(-c2n[nH]c3ccc(C(=O)NC(c4ccccc4)C4CC4)cc23)c1 (racemic) | 16 |  |  |  |  |
| CN(Cc1ccccc1)C(=O)c1ccc2[nH]nc(-c3cccc(S(N)(=O)=O)c3)c2c1 | 250 | 180 |  |  |  |
| CNC(=O)c1ccc2c(-c3cccc(S(N)(=O)=O)c3)n[nH]c2c1 | 11000 |  |  |  |  |
| NS(=O)(=O)c1cccc(-c2n[nH]c3ccc(C(=O)NC(c4ccsc4)C4CC4)cc23)c1 (racemic) | 4 | 610 |  |  |  |

| SMILES | IC50 [1] [nM] | GI50 [2] [nM] | IC50 [3] [nM] | GI50 [4] [nM] | GI50 [5] [nM] |
| --- | --- | --- | --- | --- | --- |
| CCc1cccc(CC)c1CNC(=O)c1ccc2[nH]nc(-c3cccc(S(N)(=O)=O)c3)c2c1 | 80 | 700 |  |  |  |
| CCc1cccc(CC)c1CC(=O)Nc1ccc2[nH]nc(-c3cccc(S(N)(=O)=O)c3)c2c1 | 17 | 180 |  |  |  |
| CCc1cccc(CC)c1NS(=O)(=O)Nc1ccc2[nH]nc(-c3cccc(S(N)(=O)=O)c3)c2c1 | 2600 | 50000 |  |  |  |
| NS(=O)(=O)c1cccc(-c2n[nH]c3ccc(NC(=O)C(c4ccccc4)N4CCCC4)cc23)c1 (racemic) | 8.9 | 110 |  | 230 | 350 |
| CCOC(C(=O)Nc1ccc2[nH]nc(-c3cccc(S(N)(=O)=O)c3)c2c1)c1ccccc1 (racemic) | 14 | 400 |  | 800 | 1400 |
| CN(C)[C@@H](C(=O)Nc1ccc2[nH]nc(-c3cccc(S(N)(=O)=O)c3)c2c1)c1ccccc1 | 15 | 1100 |  | 3400 | 1300 |
| NS(=O)(=O)c1cccc(-c2n[nH]c3ccc(NC(=O)Cc4ccccn4)cc23)c1 | 90 | 6890 |  |  |  |
| NS(=O)(=O)c1cccc(-c2n[nH]c3ccc(NC(=O)C(c4ccccc4)C4CCCC4)cc23)c1 (racemic) | 53 | 630 |  |  |  |
| NS(=O)(=O)c1cccc(-c2n[nH]c3ccc(NC(=O)c4cccs4)cc23)c1 | 280 |  |  |  |  |
| NS(=O)(=O)c1cccc(-c2n[nH]c3ccc(NC(=O)Cc4ccccc4)cc23)c1 | 39 | 21000 |  |  |  |
| CC(=O)Nc1ccc2c(-c3cccc(S(N)(=O)=O)c3)n[nH]c2c1 | 18000 |  |  |  |  |
| NS(=O)(=O)c1cccc(-c2n[nH]c3ccc(C(=O)NC4(c5ccccc5)CC4)cc23)c1 | 35 | 3300 |  |  |  |
| Cc1ccccc1NC(=O)Cc1ccc2[nH]nc(-c3cccc(S(N)(=O)=O)c3)c2c1 | > 5000 | > 50000 |  |  |  |
| NS(=O)(=O)c1cccc(-c2n[nH]c3ccc(C(=O)NC(c4ccccc4)C4CCCCC4)cc23)c1 (racemic) | 47 | 810 |  |  |  |
| COc1ccc2[nH]nc(-c3cccc(S(N)(=O)=O)c3)c2c1 | 600 |  |  |  |  |
| NS(=O)(=O)c1cccc(-c2n[nH]c3ccc(C(=O)NCc4cccs4)cc23)c1 | 33 | 1800 |  |  |  |
| Cc1ccccc1CNC(=O)c1ccc2[nH]nc(-c3cccc(S(N)(=O)=O)c3)c2c1 | 18 | 1800 |  |  |  |
| CN(C)[C@H](C(=O)Nc1ccc2[nH]nc(-c3cccc(S(N)(=O)=O)c3)c2c1)c1ccccc1 | 11 | 520 |  | 830 | 840 |
| NS(=O)(=O)c1cccc(-c2n[nH]c3ccc(C(=O)NCc4ccccc4)cc23)c1 | 90 | 1800 |  |  |  |
| NS(=O)(=O)c1cccc(-c2n[nH]c3ccc(-c4ccccc4)cc23)c1 | 4300 |  |  |  |  |
| CC(C)C(C(=O)Nc1ccc2[nH]nc(-c3cccc(S(N)(=O)=O)c3)c2c1)c1ccccc1 (racemic) | 46 |  |  |  |  |
| COc1cccc2[nH]nc(-c3cccc(S(N)(=O)=O)c3)c12 | 2300 |  |  |  |  |
| NS(=O)(=O)c1cccc(-c2n[nH]c3ccc(NC(=O)Nc4ccccc4)cc23)c1 | 390 | 41000 |  |  |  |
| NS(=O)(=O)c1cccc(-c2n[nH]c3ccc(NS(=O)(=O)Nc4ccccc4)cc23)c1 | 710 | 6890 |  |  |  |
| NS(=O)(=O)c1cccc(-c2n[nH]c3ccc(NS(=O)(=O)c4cccs4)cc23)c1 | 340 | 3400 |  |  |  |
| NS(=O)(=O)c1cccc(-c2n[nH]c3cc(-c4ccccc4)ccc23)c1 | 5400 |  |  |  |  |

Source: ChEMBL document CHEMBL3352261, “Discovery of inhibitors of the mitotic kinase TTK based on N-(3-(3-sulfamoylphenyl)-1H-indazol-5-yl)-acetamides and carboxamides” (Bioorg Med Chem, 2014)
